Experimental data: patent US20100041642A1, “UREA INHIBITORS OF MAP KINASES” (LOCUS PHARMACEUTICALS, INC., priority 2008, published 2010)

Target: p38 (Homo sapiens, UniProt Q16539)
Assay: Protein Kinase Assay (33P incorporation from γ-[33P]ATP into GST-ATF-2)
Type: biochemical
Conditions: 2 nM p38, preincubated 20 min at 30° C.; 10 uM cold ATP, 2 uM GST-ATF2, 70 min; read-out: ACT. (Activity), IC50 category in Protein Kinase Assay
How it was run: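 Compounds preincubated 20 min at 30 °C with 2 nM p38; reaction started with 2 uM GST-ATF-2 (aa 19-96) and 10 uM ATP plus γ-[33P]ATP, pH 7.5, 70 min at 30 °C, 2% DMSO. Phosphoric acid stop; 33P-labelled substrate captured on phosphocellulose and counted by scintillation.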

Chain of p38 (Q16539 whole entry): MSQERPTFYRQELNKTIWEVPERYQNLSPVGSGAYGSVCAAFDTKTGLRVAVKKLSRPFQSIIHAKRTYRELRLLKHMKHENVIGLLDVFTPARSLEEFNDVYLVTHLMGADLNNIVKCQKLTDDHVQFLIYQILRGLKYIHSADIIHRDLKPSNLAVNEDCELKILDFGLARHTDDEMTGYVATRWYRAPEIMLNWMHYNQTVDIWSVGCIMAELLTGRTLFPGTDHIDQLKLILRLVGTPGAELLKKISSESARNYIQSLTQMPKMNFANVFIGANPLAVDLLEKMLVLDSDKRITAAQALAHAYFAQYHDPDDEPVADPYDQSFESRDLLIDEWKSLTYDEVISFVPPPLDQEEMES

Row | SMILES | IC50 [µM]
1 | Cc1c(NC(=O)Nc2sc(C(C)(C)C)cc2C(=O)N2CCNC(=O)C2(C)C)cccc1-c1ccc(N2CCOCC2)nc1 [1-(5-tert-butyl-3-(2,2-dimethyl-3-oxopiperazine-1-carbonyl)thiophen-2-yl)-3-(2-methyl-3-(6-morpholinopyridin-3-yl)phenyl)urea] | < 0.1
2 | Cc1ccc(-c2ccc(N3CCOCC3)nc2)cc1NC(=O)Nc1sc(C(C)(C)C)cc1C(=O)N1CCNC(=O)C1(C)C [1-(5-tert-butyl-3-(2,2-dimethyl-3-oxopiperazine-1-carbonyl)thiophen-2-yl)-3-(2-methyl-5-(6-morpholinopyridin-3-yl)phenyl)urea] | < 0.1
3 | Cc1ncc(NC(=O)Nc2sc(C(C)(C)C)cc2C(=O)N2CCNC(=O)C2(C)C)cc1-c1ccc(N2CCOCC2)nc1 [1-(5-tert-butyl-3-(2,2-dimethyl-3-oxopiperazine-1-carbonyl)thiophen-2-yl)-3-(2-methyl-6′-morpholino-3,3′-bipyridin-5-yl)urea] | < 0.1
4 | CC(C)(C)c1cc(C(=O)N2CCNC(=O)C2(C)C)c(NC(=O)Nc2cccc(-c3ccnc(F)c3)c2)s1 [1-(5-tert-butyl-3-(2,2-dimethyl-3-oxopiperazine-1-carbonyl)thiophen-2-yl)-3-(3-(2-fluoropyridin-4-yl)phenyl)urea] | < 0.1
5 | Cc1nc(-c2cccc(NC(=O)Nc3sc(C(C)(C)C)cc3C(=O)N3CCNC(=O)C3(C)C)c2)cs1 [1-(5-tert-butyl-3-(2,2-dimethyl-3-oxopiperazine-1-carbonyl)thiophen-2-yl)-3-(3-(2-methylthiazol-4-yl)phenyl)urea] | < 0.1
6 | Cc1ccc(NC(=O)Nc2sc(C(C)(C)C)cc2C(=O)N2CCNC(=O)C2(C)C)cc1-c1c(C)noc1C [1-(5-tert-butyl-3-(2,2-dimethyl-3-oxopiperazine-1-carbonyl)thiophen-2-yl)-3-(3-(3,5-dimethylisoxazol-4-yl)-4-methylphenyl)urea] | < 0.1
7 | COCCOCC#Cc1cc(NC(=O)Nc2sc(C(C)(C)C)cc2C(=O)N2CCNC(=O)C2(C)C)ccc1C [1-(5-tert-butyl-3-(2,2-dimethyl-3-oxopiperazine-1-carbonyl)thiophen-2-yl)-3-(3-(3-(2-methoxyethoxy)prop-1-ynyl)-4-methylphenyl)urea] | < 0.1
8 | CN1CCN(c2cccc(NC(=O)Nc3sc(C(C)(C)C)cc3C(=O)N3CCNC(=O)C3(C)C)c2)CC1 [1-(5-tert-butyl-3-(2,2-dimethyl-3-oxopiperazine-1-carbonyl)thiophen-2-yl)-3-(3-(4-methylpiperazin-1-yl)phenyl)urea] | < 10
9 | CCc1ccc(-c2cc(NC(=O)Nc3sc(C(C)(C)C)cc3C(=O)N3CCNC(=O)C3(C)C)ccc2C)nc1 [1-(5-tert-butyl-3-(2,2-dimethyl-3-oxopiperazine-1-carbonyl)thiophen-2-yl)-3-(3-(5-ethylpyridin-2-yl)-4-methylphenyl)urea] | < 0.1
10 | COc1ccc(-c2cc(NC(=O)Nc3sc(C(C)(C)C)cc3C(=O)N3CCNC(=O)C3(C)C)ccc2C)nc1 [1-(5-tert-butyl-3-(2,2-dimethyl-3-oxopiperazine-1-carbonyl)thiophen-2-yl)-3-(3-(5-methoxypyridin-2-yl)-4-methylphenyl)urea] | < 0.1
11 | Cc1ccc(NC(=O)Nc2sc(C(C)(C)C)cc2C(=O)N2CCNC(=O)C2(C)C)cc1-c1ccc(C(C)O)nc1 (stereo not drawn) [1-(5-tert-butyl-3-(2,2-dimethyl-3-oxopiperazine-1-carbonyl)thiophen-2-yl)-3-(3-(6-(1-hydroxyethyl)pyridin-3-yl)-4-methylphenyl)urea] | < 0.1
12 | Cc1ccc(NC(=O)Nc2sc(C(C)(C)C)cc2C(=O)N2CCNC(=O)C2(C)C)cc1-c1ccc(OCCN(C)C)nc1 [1-(5-tert-butyl-3-(2,2-dimethyl-3-oxopiperazine-1-carbonyl)thiophen-2-yl)-3-(3-(6-(2-(dimethylamino)ethoxy)pyridin-3-yl)-4-methylphenyl)urea] | < 0.1
13 | CN(C)CCOc1ccc(-c2cccc(NC(=O)Nc3sc(C(C)(C)C)cc3C(=O)N3CCNC(=O)C3(C)C)c2)cn1 [1-(5-tert-butyl-3-(2,2-dimethyl-3-oxopiperazine-1-carbonyl)thiophen-2-yl)-3-(3-(6-(2-(dimethylamino)ethoxy)pyridin-3-yl)phenyl)urea] | < 0.1
14 | CC(C)(C)c1cc(C(=O)N2CCNC(=O)C2(C)C)c(NC(=O)Nc2cccc(-c3ccc(OCCN4CCOCC4)nc3)c2)s1 [1-(5-tert-butyl-3-(2,2-dimethyl-3-oxopiperazine-1-carbonyl)thiophen-2-yl)-3-(3-(6-(2-morpholinoethoxy)pyridin-3-yl)phenyl)urea] | < 0.1
15 | CN1CCN(CCCOc2ccc(-c3cccc(NC(=O)Nc4sc(C(C)(C)C)cc4C(=O)N4CCNC(=O)C4(C)C)c3)cn2)CC1 [1-(5-tert-butyl-3-(2,2-dimethyl-3-oxopiperazine-1-carbonyl)thiophen-2-yl)-3-(3-(6-(3-(4-methylpiperazin-1-yl)propoxy)pyridin-3-yl)phenyl)urea] | < 0.1
16 | Cc1ccc(NC(=O)Nc2sc(C(C)(C)C)cc2C(=O)N2CCNC(=O)C2(C)C)cc1-c1ccc(OCCCN(C)C)nc1 [1-(5-tert-butyl-3-(2,2-dimethyl-3-oxopiperazine-1-carbonyl)thiophen-2-yl)-3-(3-(6-(3-(dimethylamino)propoxy)pyridin-3-yl)-4-methylphenyl)urea] | < 0.1

Now from value to compound:

Row | IC50 [µM] | SMILES
17 | < 0.1 | CN(C)CCCOc1ccc(-c2cccc(NC(=O)Nc3sc(C(C)(C)C)cc3C(=O)N3CCNC(=O)C3(C)C)c2)cn1 [1-(5-tert-butyl-3-(2,2-dimethyl-3-oxopiperazine-1-carbonyl)thiophen-2-yl)-3-(3-(6-(3-(dimethylamino)propoxy)pyridin-3-yl)phenyl)urea]
18 | < 0.1 | Cc1ccc(NC(=O)Nc2sc(C(C)(C)C)cc2C(=O)N2CCNC(=O)C2(C)C)cc1-c1ccc(N2CCC(N(C)C)C2)nc1 (stereo not drawn) [1-(5-tert-butyl-3-(2,2-dimethyl-3-oxopiperazine-1-carbonyl)thiophen-2-yl)-3-(3-(6-(3-(dimethylamino)pyrrolidin-1-yl)pyridin-3-yl)-4-methylphenyl)urea]
19 | < 0.1 | CC(C)(C)c1cc(C(=O)N2CCNC(=O)C2(C)C)c(NC(=O)Nc2cccc(-c3ccc(OCCCc4ccccn4)nc3)c2)s1 [1-(5-tert-butyl-3-(2,2-dimethyl-3-oxopiperazine-1-carbonyl)thiophen-2-yl)-3-(3-(6-(3-(pyridin-2-yl)propoxy)pyridin-3-yl)phenyl)urea]
20 | < 0.1 | CC(C)(C)c1cc(C(=O)N2CCNC(=O)C2(C)C)c(NC(=O)Nc2cccc(-c3ccc(OCCCN4CCOCC4)nc3)c2)s1 [1-(5-tert-butyl-3-(2,2-dimethyl-3-oxopiperazine-1-carbonyl)thiophen-2-yl)-3-(3-(6-(3-morpholinopropoxy)pyridin-3-yl)phenyl)urea]
21 | < 0.1 | Cc1ccc(NC(=O)Nc2sc(C(C)(C)C)cc2C(=O)N2CCNC(=O)C2(C)C)cc1-c1ccc(N(C)C)nc1 [1-(5-tert-butyl-3-(2,2-dimethyl-3-oxopiperazine-1-carbonyl)thiophen-2-yl)-3-(3-(6-(dimethylamino)pyridin-3-yl)-4-methylphenyl)urea]
22 | < 0.1 | Cc1ccc(NC(=O)Nc2sc(C(C)(C)C)cc2C(=O)N2CCNC(=O)C2(C)C)cc1-c1ccc(NCC(C)C)nc1 [1-(5-tert-butyl-3-(2,2-dimethyl-3-oxopiperazine-1-carbonyl)thiophen-2-yl)-3-(3-(6-(isobutylamino)pyridin-3-yl)-4-methylphenyl)urea]
23 | < 0.1 | CC(=O)c1ccc(-c2cc(NC(=O)Nc3sc(C(C)(C)C)cc3C(=O)N3CCNC(=O)C3(C)C)ccc2C)cn1 [1-(5-tert-butyl-3-(2,2-dimethyl-3-oxopiperazine-1-carbonyl)thiophen-2-yl)-3-(3-(6-ethanoylpyridin-3-yl)-4-methylphenyl)urea]
24 | < 0.1 | CCc1ccc(-c2cc(NC(=O)Nc3sc(C(C)(C)C)cc3C(=O)N3CCNC(=O)C3(C)C)ccc2C)cn1 [1-(5-tert-butyl-3-(2,2-dimethyl-3-oxopiperazine-1-carbonyl)thiophen-2-yl)-3-(3-(6-ethylpyridin-3-yl)-4-methylphenyl)urea]
25 | < 0.1 | CCc1ccc(-c2cc(NC(=O)Nc3sc(C(C)(C)C)cc3C(=O)N3CCNC(=O)C3(C)C)cc(F)c2C)cn1 [1-(5-tert-butyl-3-(2,2-dimethyl-3-oxopiperazine-1-carbonyl)thiophen-2-yl)-3-(3-(6-ethylpyridin-3-yl)-5-fluoro-4-methylphenyl)urea]
26 | < 0.1 | C#Cc1ccc(-c2cc(NC(=O)Nc3sc(C(C)(C)C)cc3C(=O)N3CCNC(=O)C3(C)C)ccc2C)cn1 [1-(5-tert-butyl-3-(2,2-dimethyl-3-oxopiperazine-1-carbonyl)thiophen-2-yl)-3-(3-(6-ethynylpyridin-3-yl)-4-methylphenyl)urea]
27 | < 0.1 | Cc1ccc(NC(=O)Nc2sc(C(C)(C)C)cc2C(=O)N2CCNC(=O)C2(C)C)cc1-c1ccc(F)nc1 [1-(5-tert-butyl-3-(2,2-dimethyl-3-oxopiperazine-1-carbonyl)thiophen-2-yl)-3-(3-(6-fluoropyridin-3-yl)-4-methylphenyl)urea]
28 | < 0.1 | Cc1ccc(NC(=O)Nc2sc(C(C)(C)C)cc2C(=O)N2CCNC(=O)C2(C)C)cc1-c1ccc(C(C)C)nc1 [1-(5-tert-butyl-3-(2,2-dimethyl-3-oxopiperazine-1-carbonyl)thiophen-2-yl)-3-(3-(6-isopropylpyridin-3-yl)-4-methylphenyl)urea]
29 | < 0.1 | COc1ccc(-c2cc(NC(=O)Nc3sc(C(C)(C)C)cc3C(=O)N3CCNC(=O)C3(C)C)ccc2C)cn1 [1-(5-tert-butyl-3-(2,2-dimethyl-3-oxopiperazine-1-carbonyl)thiophen-2-yl)-3-(3-(6-methoxypyridin-3-yl)-4-methylphenyl)urea]
30 | < 0.1 | COc1ccc(-c2cc(C)cc(NC(=O)Nc3sc(C(C)(C)C)cc3C(=O)N3CCNC(=O)C3(C)C)c2)cn1 [1-(5-tert-butyl-3-(2,2-dimethyl-3-oxopiperazine-1-carbonyl)thiophen-2-yl)-3-(3-(6-methoxypyridin-3-yl)-5-methylphenyl)urea]
